Data: ChEMBL document CHEMBL1201862, “PubChem BioAssay data set” (2004)
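Each compound was tested at five concentrations against cells in 96-well plates for 48 hours. Here, GI50 denotes the concentration required for 50% inhibition of growth.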 Active and inactive are the calls of the source. Rule as the data show it: active = GI50 up to about 1.1 µM and inactive = higher.

Columns and labels:
Assay in all cases: NCI tumour cell line growth inhibition, 48 h
[1] = tested on: NCI-H522
[2] = tested on: Hs-578T
[3] = tested on: COLO 205
[4] = tested on: SNB-19
[5] = tested on: SW-620
[6] = tested on: CCRF-CEM
[7] = tested on: PC-3
[8] = tested on: LOX IMVI
[9] = tested on: SR
[10] = tested on: OVCAR-5
[11] = tested on: DU-145
[12] = tested on: CAKI-1
[13] = tested on: RPMI-8226
[14] = tested on: K562
[15] = tested on: HT-29
[16] = tested on: BT-549
[17] = tested on: OVCAR-4
[18] = tested on: SN12C
[19] = tested on: SF-295
[20] = tested on: UACC-257

Measured: GI50

CS(=O)(=O)NC12CCC(c3ccccc31)c1ccccc12
inactive: [1] > 100 µM | [2] > 100 µM | [3] > 100 µM | [4] > 100 µM | [5] > 100 µM | [6] > 100 µM | [7] > 100 µM | [8] > 100 µM | [9] > 100 µM | [10] > 100 µM | [11] > 100 µM | [12] > 100 µM | [13] > 100 µM | [14] > 100 µM | [15] > 100 µM | [16] > 100 µM | [17] > 100 µM | [18] > 100 µM

Cc1nn(-c2ccccc2)c2c1C(c1cc3ccccc3nc1Cl)NC(=O)N2 (stereo unspecified)
inactive: [1] 16.5 µM | [2] 27.5 µM | [3] 19.5 µM | [4] 20.7 µM | [5] 17.7 µM | [6] 25.8 µM | [7] 19.8 µM | [8] 19.4 µM | [9] 2.19 µM | [19] 21.1 µM | [10] 22.5 µM | [11] 29.4 µM | [12] 34.4 µM | [13] 23.9 µM | [14] 2.94 µM | [15] 18.7 µM | [20] 27.7 µM | [16] 16.6 µM | [17] 34.1 µM | [18] 24.4 µM

COC(=O)c1sc(C(=O)OC)c2c1CSC2
inactive: [1] 76.2 µM | [2] 97.9 µM | [3] > 100 µM | [4] 51.8 µM | [5] > 100 µM | [6] > 100 µM | [7] > 100 µM | [8] > 94.6 µM | [9] > 100 µM | [19] 51.3 µM | [10] > 100 µM | [11] > 100 µM | [12] > 93.5 µM | [13] > 100 µM | [14] > 100 µM | [15] > 100 µM | [20] > 100 µM | [16] > 100 µM | [17] > 100 µM | [18] > 100 µM

Cc1ccc(-c2c(C#N)c(N)[nH]c(=S)c2C#N)cc1
inactive: [1] 19.4 µM | [2] 18.5 µM | [3] 24 µM | [4] 77.1 µM | [5] 13.6 µM | [7] 33 µM | [8] 42.2 µM | [9] 22.2 µM | [19] 32.8 µM | [10] > 100 µM | [11] 50.8 µM | [12] 49.8 µM | [13] 17.7 µM | [14] 21.1 µM | [15] 48.2 µM | [20] 34.5 µM | [16] 34.1 µM | [17] 54.7 µM | [18] 22.3 µM

O=c1cc(-c2ccccc2)oc2c(-c3cc(Cl)cc4c(=O)cc(-c5ccccc5)oc34)cc(Cl)cc12
inactive: [1] 14.1 µM | [2] 15.3 µM | [3] 31.8 µM | [4] 29.4 µM | [5] 19.9 µM | [6] 5.48 µM | [7] 7.87 µM | [8] 11.3 µM | [9] > 100 µM | [19] 22.4 µM | [10] 37.9 µM | [11] 36.3 µM | [13] 25.2 µM | [14] 6.87 µM | [15] 34 µM | [16] 29.6 µM | [17] 41.9 µM | [18] 32.8 µM

CNc1ccc(OC)cc1S(=O)(=O)c1ccccc1[N+](=O)[O-]
inactive: [1] 92.3 µM | [2] > 100 µM | [3] > 100 µM | [4] > 100 µM | [5] > 100 µM | [6] 26.7 µM | [7] 52.7 µM | [8] > 100 µM | [9] > 100 µM | [19] > 100 µM | [10] > 100 µM | [11] > 100 µM | [13] > 100 µM | [14] 43.2 µM | [15] > 100 µM | [16] 75.2 µM | [17] > 100 µM | [18] > 100 µM

CSc1c(C#N)c(S)n(-c2ccc(Cl)cc2)c(=O)c1C#N
inactive: [1] 50.9 µM | [2] > 100 µM | [3] > 100 µM | [4] > 100 µM | [5] > 100 µM | [6] 32.5 µM | [7] 76.9 µM | [8] > 100 µM | [9] 33 µM | [10] > 100 µM | [11] > 100 µM | [12] > 100 µM | [13] 38.7 µM | [14] 63 µM | [15] 99.3 µM | [20] > 100 µM | [16] > 100 µM | [17] 46.1 µM | [18] > 100 µM

N=C(N)Nc1ccc(CC(N)C(=O)O)cc1 (stereo unspecified)
inactive: [1] > 12.5 µM | [2] > 12.5 µM | [3] > 12.5 µM | [5] > 12.5 µM | [6] > 12.5 µM | [7] > 12.5 µM | [8] > 12.5 µM | [9] > 12.5 µM | [19] > 12.5 µM | [10] > 12.5 µM | [11] > 12.5 µM | [12] > 12.5 µM | [13] > 12.5 µM | [14] > 12.5 µM | [15] > 12.5 µM | [20] > 12.5 µM | [16] > 12.5 µM | [17] > 12.5 µM | [18] > 12.5 µM
